Experimental data published in article PMC6018403 (Frontiers in Pharmacology, 2018).

Tested on: Caco-2 cell monolayer
Assay: Caco-2 cell monolayer permeability test (bidirectional transport of berberine)
Format: in vitro ADME, Human
Details: BER 5 μM
Experimental: The final concentration of GQD, GQD−GC, and Huang-Lian water extracts were 32, 28, and 6 μg/mL, respectively. […]
containing glucose (25 mM) and HEPES (10 mM). The final concentration of berberine was 5 µM. The final concentration of DMSO was below 1% (v/v). […]
inducer of Caco-2 cells, respectively. For the inhibitor experiments, the Caco-2 cells were cultivated in DMEM until the 21st day. After removal of the medium, the cells were incubated for 30 minutes with HBSS containing 5 µM of verapamil. For the inducer experiments, the cells were cultivated in DMEM until the 18th day, and then […]
was removed on the 21st day, and the cells were then incubated for 30 min with HBSS.
Berberine and glycyrrhizic acid were added to the system following HBSS incubation.
For all bidirectional transport assays, samples (300 µL) were collected after 30, 60, 90, […]
with an equal volume of HBSS. The samples were freeze-dried and then dissolved in 300 µL of methanol. The solutions were filtered through 0.22-µm membranes before […]
3. Inhibitor and inducer experiments […]
respectively. For the inhibition experiments, Caco-2 cells were cultivated in DMEM until the 21st day. After removal of the medium, the cells were incubated for 30 minutes with HBSS containing verapamil (5 µM). For induction experiments, the cells were cultivated in DMEM until the 18th day, and then cultivated in DMEM […]
The medium was removed on the 21st day, and the cells were then incubated for 30 min with HBSS. Berberine and glycyrrhizic acid were added to the system following HBSS incubation.

COc1ccc2cc3[n+](cc2c1OC)CCc1cc2c(cc1-3)OCO2 [Compound 24, berberine]
transport rate of BER, PAB (influx, apical to basolateral) (with GLY 5 μM): 84%
transport rate of BER, PBA (efflux) (with GLY 5 μM): 10%
transport rate of BER, PAB (influx, apical to basolateral) (without GLY): 59%
transport rate of BER, PBA (efflux) (without GLY): 34%
